# Measurements published in paper PMC7693160 (Pharmaceutics, 2020).
# Assays:
# [1] = In vitro dissolution, USP II paddle apparatus; format: physicochemical
# Protocol: All dissolution tests were performed using a calibrated USP II (paddle) apparatus (Erweka DT 80, Heusenstamm, Germany) at 37 ± 0.4 °C. Each vessel contained 500 mL of fresh, pre-warmed medium and the rotational speed was set at 75 rpm. Samples were withdrawn at 2.5, 5, 10, 15, 20, 30, 45, 60, 90, and 120 min via a 5 mL glass syringe connected to a stainless-steel cannula containing a 10 μm polyethylene cannula filter. Immediately thereafter, the sample was filtered through a 0.45 μm PTFE filter (ReZist 30, GE Healthcare UK Ltd., Buckinghamshire, United Kingdom), discarding the first 2 mL. The filtrate was immediately diluted with mobile phase and analyzed by HPLC-UV (see Section 2.5). The removal of 5 mL at each sampling time was considered in the calculation of the percentage dissolved. All experiments were performed at least in triplicate (n ≥ 3) and the final pH in the vessel was recorded.
# Samples obtained from solubility and dissolution experiments were first filtered through a 0.45 μm PTFE filter (ReZist 30 syringe filter or Uniprep; Whatman, Piscataway, NJ, USA) and subsequently, after appropriate dilution with mobile phase, analyzed by HPLC-UV (Hitachi Chromaster; Hitachi Ltd., Tokyo, Japan or Spectra System HPLC, ThermoQuest Inc., San Jose, CA, USA). A BDS Hypersil C18, 5 μm, 150 × 4.6 mm (Thermo Scientific, Waltham, MA, United States) analytical column combined with a pre-column (BDS Hypersil C-18, 3μm, 10 × 4mm) was used. The mobile phase consisted of water adjusted to pH = 3.0 with trifluoroacetic acid (TFA) and acetonitrile (49.5:0.5:50% v/v). The detection wavelength was set at 247 nm, the flow rate at 1.0 mL/min, and the injection volume at 20 μL. Using this method, the retention time was approximately 6.8 min. The limit of detection (LOD) and quantification (LOQ) were 0.03 and 0.05 μg/mL, respectively.
# UGT1A9 = conditions: Recombinant UGT; cited from earlier work
# Caco-2 cells = conditions: cited from earlier work
# CYP2C9 3*/3* = conditions: Recombinant CYP (fu,mic = 1), cited from earlier work
structure (smiles),measurement,setting,value
CC(C(=O)O)c1ccc(-c2ccccc2)c(F)c1 (stereo not shown) [flurbiprofen],maximum dissolved,"[1]; FaSSGF Level I, 100 mg",5.5%
same,plateau of in vitro release,"[1]; FaSSGF Levels I and III, 100 mg",around 8.3 % of the dose
same,time to 85% dissolved,[1]; FaSSIF V3 Level I (without bile components),60 min
same,time to >85% dissolved,[1]; FaSSIF V3 Level II,≤ 2.5 min
same,time to >85% dissolved,[1]; Ph. Eur. phosphate buffer (pH 6.8),≤ 15 min
same,Km,UGT1A9,182 µM
same,UGT1A9-Vmax,UGT1A9,3.286 pmol/min/mg protein
same,"Papp, Caco-2",Caco-2 cells,20.1 ×10⁻⁶ cm/s
same,CYP2C9 3*/3*-Vmax,CYP2C9 3*/3*,8.901 pmol/min/pmol CYP
same,Km,CYP2C9 3*/3*; read-out: CYP2C9 3*/3*-Km,23.2 µM
